Converted amounts (≈) assume the structure as drawn. Like-named read-outs stand apart in the source and are kept apart here.
Experiments:
Botrtyis cinerea (Bc) = test: Growth inhibition assay of fungal pathogens, Bc; assay type: cell-based; conditions: 48 h, growth inhibition at 48 hours vs 2% DMSO control
Procedure, shortened: (§1)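 Percent inhibition derived at 48 hours from OD600 and visual scores versus 2% DMSO control, with media+DMSO blank as background. Spore inocula in 17% V8 medium were sized from 48 h growth curves; compounds tested at final 50/10/2 or 2/0.4/0.08 ppm.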

C. albicans = test: Antifungal Activity Assay (broth microtiter MIC), C. albicans; assay type: cell-based, Candida albicans; conditions: Candida albicans, ATCC90028, 48 h
Procedure, shortened: (§2)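 Colonies from 24 h Sabouraud dextrose agar plates (35° C) are suspended in RPMI 1640+MOPS and diluted to give 2.5×10^3 CFU/mL in the wells. Plates are set up per CLSI M27-A3. Visual MIC is recorded at 48 h.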

[1] = system: Collectotrichum graminicola (Cg); test: Growth inhibition assay of fungal pathogens, Cg; assay type: cell-based; conditions: 48 h, growth inhibition at 48 hours vs 2% DMSO control
Procedure, shortened: as §1

[2] = system: Fusarium moniliforme (Fm); test: Growth inhibition assay of fungal pathogens, Fm; assay type: cell-based; conditions: Fusarium verticillioides, 48 h, read-out: Concentration at 90% Inhibition Fm
Procedure, shortened: as §1

Rhizoctonia solani (Rs) = test: Growth inhibition assay of fungal pathogens, Rs; assay type: cell-based; conditions: 48 h
[3] = system: Fusarium virguliforme (Fv); test: Growth inhibition assay of fungal pathogens, Fv; assay type: cell-based; conditions: 48 h
Procedure, shortened: as §1

C. krusei = test: Antifungal Activity Assay (broth microtiter MIC), C. krusei; assay type: cell-based, Candida krusei; conditions: Pichia kudriavzevii, ATCC6258, 48 h
Procedure, shortened: as §2

fungal (fACC2) = fungal (fACC2) (UniProt Q00955); conditions: read-out: fACC2 (in vitro ACC2 Inhibition Assay, IC50); Table 2b, additional results; ADP-Glo, 5 nM ACC2, 20 μM ATP, 20 μM acetyl-CoA
human (hACC2) = human (hACC2) (Homo sapiens, UniProt O00763); test: In vitro ACC inhibition assay (ADP-Glo), hACC2; assay type: biochemical; conditions: Table 2b, additional results, 5 nM ACC2, 20 μM ATP, 20 μM acetyl-CoA
Experimental: The detailed procedure is as follows. […] 10 μL ADP glo reagent was added. […] 20 μL kinase detection reagent was added.

Diplodia maydis (Dm) = test: Growth inhibition assay of fungal pathogens, Dm; assay type: cell-based; conditions: Stenocarpella maydis, 48 h, growth inhibition at 48 hours vs 2% DMSO control
Procedure, shortened: as §1

Septoria tritici (St) = test: Growth inhibition assay of fungal pathogens, St; assay type: cell-based; conditions: Zymoseptoria tritici, 48 h, growth inhibition at 48 hours vs 2% DMSO control
Procedure, shortened: as §1

[4] = system: Phytophthora capsici (Pc); test: Growth inhibition assay of fungal pathogens, Pc; assay type: cell-based; conditions: 48 h
Procedure, shortened: as §1

C. parapsilosis = test: Antifungal Activity Assay (broth microtiter MIC), C. parapsilosis; assay type: cell-based, Candida parapsilosis; conditions: Lodderomyces parapsilosis, ATCC22019, 48 h
Procedure, shortened: as §2

[5] = read-out: Concentration at 90% Inhibition Bc, Botrtyis cinerea
[6] = read-out: MIC, C. albicans ATCC 90028, Table 3b (additional results), 3 replicates, MIC recorded at 48 h
[7] = read-out: Concentration at 90% Inhibition Cg, Collectotrichum graminicola
[8] = read-out: Concentration at 90% Inhibition Rs, Rhizoctonia solani, mycelial plugs, growth inhibition at 48 hours vs 2% DMSO control
[9] = read-out: Concentration at 90% Inhibition Fv, Fusarium virguliforme, growth inhibition at 48 hours vs 2% DMSO control
[10] = read-out: MIC, C. krusei ATCC 6258, Table 3b (additional results), 3 replicates, MIC recorded at 48 h
[11] = read-out: Concentration at 90% Inhibition Dm, Diplodia maydis
[12] = read-out: Concentration at 90% Inhibition St, Septoria tritici
[13] = read-out: Concentration at 90% Inhibition Pc, Phytophthora capsici, growth inhibition at 48 hours vs 2% DMSO control
[14] = read-out: MIC, C. parapsilosis ATCC 22019, Table 3b (additional results), 3 replicates, MIC recorded at 48 h
[15] = Botrtyis cinerea, read-out: Concentration at 90% Inhibition Bc
[16] = Table 3b (additional results), ATCC 90028, 3 replicates, MIC recorded at 48 h, read-out: MIC, C. albicans ATCC 90028
[17] = Collectotrichum graminicola, read-out: Concentration at 90% Inhibition Cg
[18] = Fusarium moniliforme, growth inhibition at 48 hours vs 2% DMSO control
[19] = mycelial plugs, growth inhibition at 48 hours vs 2% DMSO control, read-out: Concentration at 90% Inhibition Rs
[20] = growth inhibition at 48 hours vs 2% DMSO control, read-out: Concentration at 90% Inhibition Fv
[21] = Table 3b (additional results), ATCC 6258, 3 replicates, MIC recorded at 48 h, read-out: MIC, C. krusei ATCC 6258
[22] = Diplodia maydis, read-out: Concentration at 90% Inhibition Dm
[23] = Septoria tritici, read-out: Concentration at 90% Inhibition St
[24] = growth inhibition at 48 hours vs 2% DMSO control, read-out: Concentration at 90% Inhibition Pc
[25] = Table 3b (additional results), ATCC 22019, 3 replicates, MIC recorded at 48 h, read-out: MIC, C. parapsilosis ATCC 22019

Sequence of human (hACC2) (O00763 whole entry): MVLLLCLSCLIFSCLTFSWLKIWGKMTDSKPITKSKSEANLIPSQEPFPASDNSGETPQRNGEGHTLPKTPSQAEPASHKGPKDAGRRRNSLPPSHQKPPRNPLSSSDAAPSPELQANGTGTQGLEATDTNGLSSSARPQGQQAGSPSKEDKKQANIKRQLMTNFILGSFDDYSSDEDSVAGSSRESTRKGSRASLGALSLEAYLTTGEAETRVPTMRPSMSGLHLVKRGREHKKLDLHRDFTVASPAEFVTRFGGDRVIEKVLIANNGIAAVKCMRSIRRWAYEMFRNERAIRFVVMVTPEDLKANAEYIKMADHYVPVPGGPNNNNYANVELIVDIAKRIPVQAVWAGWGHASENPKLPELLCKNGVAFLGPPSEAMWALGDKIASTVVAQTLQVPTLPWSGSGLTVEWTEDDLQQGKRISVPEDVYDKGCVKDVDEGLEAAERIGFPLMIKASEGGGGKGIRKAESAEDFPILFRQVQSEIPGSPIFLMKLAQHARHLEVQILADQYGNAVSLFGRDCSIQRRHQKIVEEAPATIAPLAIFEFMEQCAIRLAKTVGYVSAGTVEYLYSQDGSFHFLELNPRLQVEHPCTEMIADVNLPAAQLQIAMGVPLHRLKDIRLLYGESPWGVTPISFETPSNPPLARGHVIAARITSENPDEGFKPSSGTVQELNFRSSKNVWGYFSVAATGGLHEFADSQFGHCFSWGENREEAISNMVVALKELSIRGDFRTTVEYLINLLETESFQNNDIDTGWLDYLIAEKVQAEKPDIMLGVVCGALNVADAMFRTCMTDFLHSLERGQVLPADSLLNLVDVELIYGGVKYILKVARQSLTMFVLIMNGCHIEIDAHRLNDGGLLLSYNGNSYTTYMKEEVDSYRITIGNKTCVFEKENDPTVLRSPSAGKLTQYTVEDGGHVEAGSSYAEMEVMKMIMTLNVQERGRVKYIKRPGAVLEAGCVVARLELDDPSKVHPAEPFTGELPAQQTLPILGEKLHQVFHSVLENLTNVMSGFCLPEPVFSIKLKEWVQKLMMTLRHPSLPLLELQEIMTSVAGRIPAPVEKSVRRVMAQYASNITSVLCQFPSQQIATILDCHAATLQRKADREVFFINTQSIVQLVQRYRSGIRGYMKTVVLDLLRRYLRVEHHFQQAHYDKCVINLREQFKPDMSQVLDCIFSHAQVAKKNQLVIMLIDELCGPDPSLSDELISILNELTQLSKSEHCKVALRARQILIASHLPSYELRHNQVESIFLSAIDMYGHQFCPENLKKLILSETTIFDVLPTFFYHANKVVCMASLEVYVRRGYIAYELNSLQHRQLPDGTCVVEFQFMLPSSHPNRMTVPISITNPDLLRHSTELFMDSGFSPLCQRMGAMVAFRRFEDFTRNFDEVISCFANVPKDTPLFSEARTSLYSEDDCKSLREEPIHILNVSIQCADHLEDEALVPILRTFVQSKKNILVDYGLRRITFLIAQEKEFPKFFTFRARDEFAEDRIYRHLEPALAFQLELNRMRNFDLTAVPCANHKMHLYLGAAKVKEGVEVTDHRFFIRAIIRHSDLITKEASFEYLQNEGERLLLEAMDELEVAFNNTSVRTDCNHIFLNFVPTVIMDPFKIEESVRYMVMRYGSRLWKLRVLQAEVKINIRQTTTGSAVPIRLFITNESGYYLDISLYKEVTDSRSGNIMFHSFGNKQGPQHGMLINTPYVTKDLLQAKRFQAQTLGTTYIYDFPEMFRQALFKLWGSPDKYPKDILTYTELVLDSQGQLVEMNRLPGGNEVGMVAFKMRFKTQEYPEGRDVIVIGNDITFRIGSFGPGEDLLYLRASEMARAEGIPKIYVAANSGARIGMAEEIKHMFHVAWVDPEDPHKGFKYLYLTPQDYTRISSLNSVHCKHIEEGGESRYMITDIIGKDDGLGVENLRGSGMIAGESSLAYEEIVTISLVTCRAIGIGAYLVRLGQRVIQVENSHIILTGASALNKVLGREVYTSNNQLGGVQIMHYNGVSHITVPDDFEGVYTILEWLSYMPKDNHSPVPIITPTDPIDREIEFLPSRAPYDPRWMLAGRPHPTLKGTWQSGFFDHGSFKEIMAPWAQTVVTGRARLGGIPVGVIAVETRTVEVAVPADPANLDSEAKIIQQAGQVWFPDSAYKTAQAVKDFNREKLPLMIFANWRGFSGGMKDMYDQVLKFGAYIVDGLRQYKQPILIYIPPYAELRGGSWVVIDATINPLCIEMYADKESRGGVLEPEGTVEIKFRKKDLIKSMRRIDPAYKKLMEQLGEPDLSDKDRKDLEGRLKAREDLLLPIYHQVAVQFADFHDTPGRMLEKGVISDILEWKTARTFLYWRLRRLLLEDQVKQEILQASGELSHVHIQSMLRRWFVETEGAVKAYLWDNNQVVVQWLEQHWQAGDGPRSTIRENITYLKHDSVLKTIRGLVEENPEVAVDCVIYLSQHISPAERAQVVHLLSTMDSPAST
Sequence of fungal (fACC2) (Q00955 whole entry): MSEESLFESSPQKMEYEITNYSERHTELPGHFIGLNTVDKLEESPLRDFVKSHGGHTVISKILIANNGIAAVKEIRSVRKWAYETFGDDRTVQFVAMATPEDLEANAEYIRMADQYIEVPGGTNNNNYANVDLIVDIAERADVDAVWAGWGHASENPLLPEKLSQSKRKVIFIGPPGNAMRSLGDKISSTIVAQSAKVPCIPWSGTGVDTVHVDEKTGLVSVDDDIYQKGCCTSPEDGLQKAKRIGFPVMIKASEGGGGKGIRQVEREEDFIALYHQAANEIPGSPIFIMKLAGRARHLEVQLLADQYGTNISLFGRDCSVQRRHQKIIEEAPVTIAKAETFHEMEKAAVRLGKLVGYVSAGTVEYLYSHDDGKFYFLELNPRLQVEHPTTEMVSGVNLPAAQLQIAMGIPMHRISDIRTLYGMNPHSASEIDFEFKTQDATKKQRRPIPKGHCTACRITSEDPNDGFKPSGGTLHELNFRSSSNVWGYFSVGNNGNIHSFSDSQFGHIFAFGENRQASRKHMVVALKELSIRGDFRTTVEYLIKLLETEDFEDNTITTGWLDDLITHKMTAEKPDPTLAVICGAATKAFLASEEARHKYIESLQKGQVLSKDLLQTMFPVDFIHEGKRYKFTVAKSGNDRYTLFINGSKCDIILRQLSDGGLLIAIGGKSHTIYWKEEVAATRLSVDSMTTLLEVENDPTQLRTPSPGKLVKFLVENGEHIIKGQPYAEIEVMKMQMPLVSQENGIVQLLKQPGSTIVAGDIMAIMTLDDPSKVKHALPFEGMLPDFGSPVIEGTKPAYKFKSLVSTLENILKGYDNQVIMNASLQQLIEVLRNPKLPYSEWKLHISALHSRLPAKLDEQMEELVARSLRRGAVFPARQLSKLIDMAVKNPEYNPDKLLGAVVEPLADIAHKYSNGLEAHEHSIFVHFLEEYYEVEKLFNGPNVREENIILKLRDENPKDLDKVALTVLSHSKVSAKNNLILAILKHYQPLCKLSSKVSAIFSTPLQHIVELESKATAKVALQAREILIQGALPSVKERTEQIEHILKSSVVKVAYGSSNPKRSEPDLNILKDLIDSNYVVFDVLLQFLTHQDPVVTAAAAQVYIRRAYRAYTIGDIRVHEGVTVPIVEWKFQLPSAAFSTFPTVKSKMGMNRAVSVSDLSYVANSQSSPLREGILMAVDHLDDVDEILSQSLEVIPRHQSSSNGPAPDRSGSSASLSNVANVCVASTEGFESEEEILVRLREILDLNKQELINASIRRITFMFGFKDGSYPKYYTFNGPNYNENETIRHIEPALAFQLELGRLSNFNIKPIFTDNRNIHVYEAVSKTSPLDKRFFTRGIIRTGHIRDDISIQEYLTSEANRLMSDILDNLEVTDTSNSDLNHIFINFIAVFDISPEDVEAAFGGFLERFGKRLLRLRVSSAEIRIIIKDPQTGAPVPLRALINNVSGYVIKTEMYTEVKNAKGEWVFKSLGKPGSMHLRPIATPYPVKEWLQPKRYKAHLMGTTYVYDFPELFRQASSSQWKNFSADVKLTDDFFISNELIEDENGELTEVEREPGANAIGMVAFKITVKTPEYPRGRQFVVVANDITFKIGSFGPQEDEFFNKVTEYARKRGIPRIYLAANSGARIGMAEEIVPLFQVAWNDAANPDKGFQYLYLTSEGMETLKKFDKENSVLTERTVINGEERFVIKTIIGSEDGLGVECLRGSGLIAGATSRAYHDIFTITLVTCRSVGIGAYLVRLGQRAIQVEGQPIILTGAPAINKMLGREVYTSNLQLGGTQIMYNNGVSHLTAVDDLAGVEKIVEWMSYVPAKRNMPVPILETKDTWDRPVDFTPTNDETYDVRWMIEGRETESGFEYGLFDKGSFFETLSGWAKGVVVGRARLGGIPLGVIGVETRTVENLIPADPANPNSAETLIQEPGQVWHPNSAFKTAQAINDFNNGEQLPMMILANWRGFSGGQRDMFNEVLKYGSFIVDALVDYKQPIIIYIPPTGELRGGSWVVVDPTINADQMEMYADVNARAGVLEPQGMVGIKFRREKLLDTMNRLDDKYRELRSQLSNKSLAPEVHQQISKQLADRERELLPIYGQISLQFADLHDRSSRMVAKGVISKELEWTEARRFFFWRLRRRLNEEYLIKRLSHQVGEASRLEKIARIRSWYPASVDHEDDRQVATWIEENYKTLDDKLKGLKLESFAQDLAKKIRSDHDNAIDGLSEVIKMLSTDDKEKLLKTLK

Row | Structure (SMILES) | IC90 (Botrtyis cinerea (Bc); [5]) | MIC (C. albicans; [6]) | IC90 [1, 7] | IC90 [2] | IC90 (Rhizoctonia solani (Rs); [8]) | IC90 [3, 9] | MIC (C. krusei; [10]) | IC50 (fungal (fACC2)) | IC50 (human (hACC2)) | IC90 (Botrtyis cinerea (Bc); [15]) | MIC (C. albicans; [16]) | IC90 [1, 17] | IC90 [2, 18] | IC90 (Rhizoctonia solani (Rs); [19]) | IC90 [3, 20] | MIC (C. krusei; [21]) | IC90 (Diplodia maydis (Dm); [22]) | IC90 (Septoria tritici (St); [23]) | IC90 [4, 24] | MIC (C. parapsilosis; [25]) | further results
1 | COc1ccc(F)cc1[C@@](O)(CO)Cn1c(=O)n(C(C)(C)C(=O)NC(C)C)c(=O)c2c(C)c(-n3nccn3)sc21 [Compound I-225] | 0.4 µg/mL (≈ 0.696 µM) | 0.25 to 1 µg/mL (≈ 0.435 to 1.74 µM) | 0.08 µg/mL (≈ 0.139 µM) | 0.08 µg/mL (≈ 0.139 µM) | 0.08 µg/mL (≈ 0.139 µM) | 0.4 µg/mL (≈ 0.696 µM) | 0.25 to 1 µg/mL (≈ 0.435 to 1.74 µM) | 1 to 5 nM | 5 to 10 nM |  |  |  |  |  |  |  |  |  |  |  | IC90 (Diplodia maydis (Dm); [11]): 0.4 µg/mL (≈ 0.696 µM); IC90 (Septoria tritici (St); [12]): > 50 µg/mL; IC90 [4, 13]: 2 µg/mL (≈ 3.48 µM); MIC (C. parapsilosis; [14]): 1.01 to 2 µg/mL (≈ 1.76 to 3.48 µM)
2 | Cc1c(-n2nccn2)sc2c1c(=O)n(C(C)(C)C(=O)NC(C)C)c(=O)n2C[C@H](OCCO)c1cc(F)ccc1O [Compound I-226] |  |  |  |  |  |  |  | 0.3 to 1 nM | 10 to 40 nM | 10 µg/mL (≈ 17.4 µM) | 2.01 to 4 µg/mL (≈ 3.5 to 6.96 µM) | 10 µg/mL (≈ 17.4 µM) | 2 µg/mL (≈ 3.48 µM) | 2 µg/mL (≈ 3.48 µM) | 10 µg/mL (≈ 17.4 µM) | 1.01 to 2 µg/mL (≈ 1.76 to 3.48 µM) | > 50 µg/mL | > 50 µg/mL | > 50 µg/mL | 2.01 to 4 µg/mL (≈ 3.5 to 6.96 µM) | 
3 | COc1ccc(Cl)cc1[C@H](Cn1c(=O)n(C(C)(C)C(=O)NC(C)C)c(=O)c2c(C)c(-n3nccn3)sc21)OCC(C)(C)C#N [Compound I-227] |  |  |  |  |  |  |  | 1 to 5 nM | 10 to 40 nM | 2 µg/mL (≈ 3.11 µM) | 0.25 to 1 µg/mL (≈ 0.389 to 1.56 µM) | 2 µg/mL (≈ 3.11 µM) | 2 µg/mL (≈ 3.11 µM) | 2 µg/mL (≈ 3.11 µM) | 2 µg/mL (≈ 3.11 µM) | 0.25 to 1 µg/mL (≈ 0.389 to 1.56 µM) | 2 µg/mL (≈ 3.11 µM) | > 50 µg/mL | > 50 µg/mL | 1.01 to 2 µg/mL (≈ 1.57 to 3.11 µM) | 
4 | COc1ccc(F)cc1[C@](C)(Cn1c(=O)n(C(C)(C)C(=O)NC(C)C)c(=O)c2c(C)c(-n3nccn3)sc21)OCCC#N [Compound I-229] |  |  |  |  |  |  |  | 1 to 5 nM | > 40 nM | 0.4 µg/mL (≈ 0.654 µM) | 0.25 to 1 µg/mL (≈ 0.409 to 1.63 µM) | 2 µg/mL (≈ 3.27 µM) | 0.08 µg/mL (≈ 0.131 µM) | 2 µg/mL (≈ 3.27 µM) | 0.4 µg/mL (≈ 0.654 µM) | 0.25 to 1 µg/mL (≈ 0.409 to 1.63 µM) | > 50 µg/mL | > 50 µg/mL | > 50 µg/mL | 1.01 to 2 µg/mL (≈ 1.65 to 3.27 µM) | 
5 | COc1ccc(F)cc1[C@@](C)(Cn1c(=O)n(C(C)(C)C(=O)NC(C)C)c(=O)c2c(C)c(-n3nccn3)sc21)OCCC#N [Compound I-230] |  |  |  |  |  |  |  | 0.3 to 1 nM | 10 to 40 nM | 0.4 µg/mL (≈ 0.654 µM) | 0.25 to 1 µg/mL (≈ 0.409 to 1.63 µM) | 0.08 µg/mL (≈ 0.131 µM) | 0.08 µg/mL (≈ 0.131 µM) | 0.08 µg/mL (≈ 0.131 µM) | 0.4 µg/mL (≈ 0.654 µM) | 0.25 to 1 µg/mL (≈ 0.409 to 1.63 µM) | 0.4 µg/mL (≈ 0.654 µM) | > 50 µg/mL | 2 µg/mL (≈ 3.27 µM) | 1.01 to 2 µg/mL (≈ 1.65 to 3.27 µM) | 
6 | COc1ccc(F)cc1[C@@](O)(CCO)Cn1c(=O)n(C(C)(C)C(=O)NC(C)C)c(=O)c2c(C)c(-n3nccn3)sc21 [Compound I-231] | 2 µg/mL (≈ 3.4 µM) | 0.06 to 0.249 µg/mL (≈ 0.102 to 0.423 µM) | 2 µg/mL (≈ 3.4 µM) | 0.4 µg/mL (≈ 0.68 µM) | 0.08 µg/mL (≈ 0.136 µM) | 2 µg/mL (≈ 3.4 µM) | 0.06 to 0.249 µg/mL (≈ 0.102 to 0.423 µM) | 1 to 5 nM | 10 to 40 nM |  |  |  |  |  |  |  |  |  |  |  | IC90 (Diplodia maydis (Dm); [11]): 2 µg/mL (≈ 3.4 µM); IC90 (Septoria tritici (St); [12]): > 50 µg/mL; IC90 [4, 13]: 10 µg/mL (≈ 17 µM); MIC (C. parapsilosis; [14]): 1.01 to 2 µg/mL (≈ 1.72 to 3.4 µM)

Reference: US10800791B2, “Triazole ACC inhibitors and uses thereof” (Gilead Apollo, LLC, priority 2015, dated 2020)
